Reference: US20210085640A1, “ACYLATED CATECHIN POLYPHENOLS AND METHODS OF THEIR USE FOR THE TREATMENT OF CANCER” (Flagship Pioneering Innovations V, Inc., priority 2018, published 2021)

Tests used:
Assay type in all cases: cell-based
T24 bladder cancer cells = test: Cancer cell survival (CellTiter-Glo), T24; conditions: Homo sapiens
How it was run: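 T24 cells seeded at 4×10^3 cells/well overnight, then exposed 72 h at 37 C, 5% CO2 to nine concentrations in triplicate. Survival measured by CellTiter-Glo luminescence relative to untreated and medium controls; IC50 derived.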

[1] = tested on: Daudi lymphoma cancer cells; test: Cancer cell survival (CellTiter-Glo), Daudi; conditions: Homo sapiens, 72 h
How it was run: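 Daudi cells (4×10^3/well) were exposed for 72 h at 37 °C to nine concentrations of compound, added as 10× solutions spanning 1 μM–10 mM (fatty acids) or 100 nM–1 mM (others). CellTiter-Glo luminescence gave % survival versus untreated, medium-blank corrected; IC50 derived.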

MCF7 breast cancer cells = test: Cancer cell survival (CellTiter-Glo), MCF7; conditions: Homo sapiens, 72 h
How it was run: (§1)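 Cells were seeded at 4×10^3 cells/well and left overnight at 37 C, 5% CO2, then exposed in triplicate to nine compound concentrations for 72 h. Dosing solutions were made at 10× final (1 μM-10 mM fatty acids, 100 nM-1 mM other compounds). CellTiter-Glo luminescence, normalised to untreated and medium-only wells, gave IC50.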

[2] = tested on: HCT 116 colorectal cancer cells; test: Cancer cell survival (CellTiter-Glo), HCT 116; conditions: Homo sapiens, HCT 116 cells, 72 h
How it was run: as §1

A549 lung cancer cells = test: Cancer cell survival (CellTiter-Glo), A549; conditions: Homo sapiens, 72 h
How it was run: as §1

[3] = tested on: PC-3 prostate cancer cells; test: Cancer cell survival (CellTiter-Glo), PC-3; conditions: Homo sapiens, PC-3 cells, 72 h
How it was run: as §1

A-431 skin cancer cells = test: Cancer cell survival (CellTiter-Glo), A-431; conditions: Homo sapiens, A-431 cells, 72 h
How it was run: as §1

AGS stomach cancer cells = test: Cancer cell survival (CellTiter-Glo), AGS
How it was run: as §1

[4] = Human Regulatory T Cell Differentiation Assay; conditions: human, primary naïve CD4+ T cells isolated from PBMCs, 1 uM, read-out: Cell viability % DMSO
How it was run: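 Naïve CD4+ T cells isolated from healthy-donor PBMCs, cultured 6 days with 5 ng/ml TGF-β, 100 U/ml IL-2 and CD3/CD28/CD2 activator, with or without compound. Flow cytometry of live cells; Tregs as CD4+CD25+FOXP3+ percentage of total CD4+ T cells, compared by one-way ANOVA.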

[5] = 101 nM, read-out: Cell survival at given concentration
[6] = 318 nM, read-out: Cell survival at given concentration
[7] = 1 μM, read-out: Cell survival at given concentration
[8] = 3 μM, read-out: Cell survival at given concentration
[9] = 10 μM, read-out: Cell survival at given concentration
[10] = 32 μM, read-out: Cell survival at given concentration
[11] = 100 μM, read-out: Cell survival at given concentration
[12] = 316 μM, read-out: Cell survival at given concentration
[13] = 1000 μM, read-out: Cell survival at given concentration

## Oc1ccc(C=Cc2cc(O)cc(O)c2)cc1 [resveratrol]
T24 bladder cancer cells; T-24, 101 nM, 72 h, read-out: Cell survival at given concentration
  viability at 0.101 µM: 100%
T24 bladder cancer cells; T-24, 318 nM, 72 h, read-out: Cell survival at given concentration
  viability at 0.318 µM: 102%
T24 bladder cancer cells; T-24, 1 μM, 72 h, read-out: Cell survival at given concentration
  viability at 1 µM: 100%
T24 bladder cancer cells; T-24, 3 μM, 72 h, read-out: Cell survival at given concentration
  viability at 3 µM: 101%
T24 bladder cancer cells; T-24, 10 μM, 72 h, read-out: Cell survival at given concentration
  viability at 10 µM: 92%
T24 bladder cancer cells; T-24, 32 μM, 72 h, read-out: Cell survival at given concentration
  viability at 32 µM: 1%
T24 bladder cancer cells; T-24, 100 μM, 72 h, read-out: Cell survival at given concentration
  viability at 100 µM: 0%
T24 bladder cancer cells; T-24, 316 μM, 72 h, read-out: Cell survival at given concentration
  viability at 316 µM: 0%
T24 bladder cancer cells; T-24, 1000 μM, 72 h, read-out: Cell survival at given concentration
  viability at 1000 µM: 0%
T24 bladder cancer cells; T-24, 72 h, Table 3.1, read-out: 1050
  IC50: 15.1 µM
[1]; [5]
  viability at 0.101 µM: 100%
[1]; [6]
  viability at 0.318 µM: 101%
[1]; [7]
  viability at 1 µM: 102%
[1]; [8]
  viability at 3 µM: 102%
[1]; [9]
  viability at 10 µM: 101%
[1]; [10]
  viability at 32 µM: 14%
[1]; [11]
  viability at 100 µM: 0%
[1]; [12]
  viability at 316 µM: 0%
[1]; [13]
  viability at 1000 µM: 0%
[1]; Table 4.1
  IC50: 23.9 µM
MCF7 breast cancer cells; [5]
  viability at 0.101 µM: 94%
MCF7 breast cancer cells; [6]
  viability at 0.318 µM: 96%
MCF7 breast cancer cells; [7]
  viability at 1 µM: 99%
MCF7 breast cancer cells; [8]
  viability at 3 µM: 99%
MCF7 breast cancer cells; [9]
  viability at 10 µM: 95%
MCF7 breast cancer cells; [10]
  viability at 32 µM: 96%
MCF7 breast cancer cells; [11]
  viability at 100 µM: 85%
MCF7 breast cancer cells; [12]
  viability at 316 µM: 27%
MCF7 breast cancer cells; [13]
  viability at 1000 µM: 0%
MCF7 breast cancer cells; Table 5.1
  IC50: 212 µM
[2]; [5]
  viability at 0.101 µM: 103%
[2]; [6]
  viability at 0.318 µM: 98%
[2]; [7]
  viability at 1 µM: 98%
[2]; [8]
  viability at 3 µM: 101%
[2]; [9]
  viability at 10 µM: 98%
[2]; [10]
  viability at 32 µM: 65%
[2]; [11]
  viability at 100 µM: 0%
[2]; [12]
  viability at 316 µM: 0%
[2]; [13]
  viability at 1000 µM: 0%
[2]; Table 6.1
  IC50: 37.4 µM
A549 lung cancer cells; [5]
  viability at 0.101 µM: 98%
A549 lung cancer cells; [6]
  viability at 0.318 µM: 99%
A549 lung cancer cells; [7]
  viability at 1 µM: 98%
A549 lung cancer cells; [8]
  viability at 3 µM: 98%
A549 lung cancer cells; [9]
  viability at 10 µM: 98%
A549 lung cancer cells; [10]
  viability at 32 µM: 96%
A549 lung cancer cells; [11]
  viability at 100 µM: 88%
A549 lung cancer cells; [12]
  viability at 316 µM: 50%
A549 lung cancer cells; [13]
  viability at 1000 µM: 0%
A549 lung cancer cells; Table 7.1
  IC50: 317 µM
[3]; [5]
  viability at 0.101 µM: 101%
[3]; [6]
  viability at 0.318 µM: 102%
[3]; [7]
  viability at 1 µM: 101%
[3]; [8]
  viability at 3 µM: 102%
[3]; [9]
  viability at 10 µM: 103%
[3]; [10]
  viability at 32 µM: 96%
[3]; [11]
  viability at 100 µM: 95%
[3]; [12]
  viability at 316 µM: 32%
[3]; [13]
  viability at 1000 µM: 0%
[3]; Table 8.1
  IC50: 248 µM
A-431 skin cancer cells; [5]
  viability at 0.101 µM: 101%
A-431 skin cancer cells; [6]
  viability at 0.318 µM: 101%
A-431 skin cancer cells; [7]
  viability at 1 µM: 102%
A-431 skin cancer cells; [8]
  viability at 3 µM: 102%
A-431 skin cancer cells; [9]
  viability at 10 µM: 98%
A-431 skin cancer cells; [10]
  viability at 32 µM: 87%
A-431 skin cancer cells; [11]
  viability at 100 µM: 65%
A-431 skin cancer cells; [12]
  viability at 316 µM: 13%
A-431 skin cancer cells; [13]
  viability at 1000 µM: 0%
A-431 skin cancer cells; Table 9.1
  IC50: 132 µM
AGS stomach cancer cells; 72 h, 101 nM, read-out: Cell survival at given concentration
  viability at 0.101 µM: 100%
AGS stomach cancer cells; 72 h, 318 nM, read-out: Cell survival at given concentration
  viability at 0.318 µM: 95%
AGS stomach cancer cells; 72 h, 1 μM, Table 10.1, read-out: Cell survival at given concentration
  viability at 1 µM: 101%
AGS stomach cancer cells; 72 h, 3 μM, Table 10.1, read-out: Cell survival at given concentration
  viability at 3 µM: 98%
AGS stomach cancer cells; 72 h, 10 μM, Table 10.1, read-out: Cell survival at given concentration
  viability at 10 µM: 100%
AGS stomach cancer cells; 72 h, 32 μM, Table 10.1, read-out: Cell survival at given concentration
  viability at 32 µM: 101%
AGS stomach cancer cells; 72 h, 100 μM, Table 10.1, read-out: Cell survival at given concentration
  viability at 100 µM: 94%
AGS stomach cancer cells; 72 h, 316 μM, read-out: Cell survival at given concentration
  viability at 316 µM: 33%
AGS stomach cancer cells; 72 h, 1000 μM, read-out: Cell survival at given concentration
  viability at 1000 µM: 0%
AGS stomach cancer cells; Table 10.1
  IC50: 252 µM
[4]
  viability at 6 days, 1 µM: < 90%
